Patent US20040127403A1, “Methods for treating and preventing Gram-positive bacteremias” (priority 2002, published 2004)
“And” between values parts separate entries of the source, which are not always exact repeats. Identical values can stand only once.

What was measured:
[1] = system: VanA strain of E. faecium (VRE); assay: Suppression of VRE in a mouse colonization model; assay type: in vivo, Mice
Procedure: Mice were colonized with a clinical isolate VanA strain of E. faecium (VRE) isolated from a septicemic patient. A single inoculation of 5×10^8 cfu VRE by oral gavage (Day 0) was followed by treatment with vancomycin in the drinking water to maintain colonization. On day 22, each group received the same vancomycin-containing drinking water. One group also received ramoplanin (100 μg/mL) in its drinking water. The dose of ramoplanin per day was estimated to be 15 mg/kg, based on a standard water consumption of 150 mL/kg/day. Treatment with ramoplanin was discontinued on Day 29, and vancomycin treatment was discontinued on Day 36. The control group consisted of five mice, while the ramoplanin group consisted of four mice.

[2] = Multiple dose study in healthy male volunteers: absorption and fecal concentrations; assay type: in vivo, human
Procedure: (§1) Healthy male volunteers were administered 200, 400, or 800 mg ramoplanin twice-a-day, for ten consecutive days. The predetermined dose was reconstituted in 5 mL water per vial, mixed with 50 mL of sweetened, aromatized solution, and immediately administered orally to the subjects.
No absorption from the human gastrointestinal tract was observed.

[3] = system: Gram-positive bacteria (staphylococci, streptococci, enterococci) in feces; assay: Multiple dose study: activity on stool microflora, Gram-positive bacteria; assay type: in vivo, human
Procedure: as §1
The antibacterial activity of ramoplanin on the stool microflora was assessed in a subset of the subjects. Microbial concentrations (i.e., the number of organisms per gram of fecal matter) were determined at the following time points: Day-4 (pre-treatment), Days 4 and 10 (treatment), and Days […] and 24 (follow-up). Tolerability and absorption were also investigated.

fecal Enterococci = assay: Oral formulation study: suppression of fecal Enterococci; assay type: in vivo, human; details: 400 mg b.i.d. seven days, granulated powder in Orasweet syrup; day 7/8
Procedure: (§2) To further elucidate the pharmacodynamics and intestinal bioavailability, healthy male volunteers (18-45 years; BMI—19-29 kg/m^2) were administered oral ramoplanin (400 mg b.i.d.) for seven days and fecal Enterococci were monitored. Ramoplanin was administered to six subjects as a granulated powder admixed with Orasweet® syrup vehicle.
The presence of fecal enterococci was confirmed in all subjects prior to study initiation. Fecal samples were cultured on day 7/8. The pharmacodynamic endpoints was the number of subjects with successful suppression of fecal Enterococci on day 7/8 compared to the pre-study culture.

[4] = Oral formulation study: ramoplanin in feces, plasma and urine; assay type: in vivo, human; details: 400 mg b.i.d. seven days
Procedure: as §2

VRE = assay: MIC against VRE, NCCLS broth microdilution; assay type: cell-based; details: all VRE in this study cultured in CAMHB
Procedure: (§3) The efficacy of ramoplanin was tested against recently isolated VRE that are resistant to linezolid and quinupristin/dalfopristin. The culture media containing ramoplanin was supplemented with 0.02% bovine serum albumin (BSA) to prevent ramoplanin binding to the plastic. MIC values were determined in both cation-adjusted Mueller-Hinton broth (CAMHB) and trypticase soy broth (TSB) by the National Committee for Clinical Laboratory Standards (NCCLS) broth microdilution method. Macromolecular biosynthesis experiments were done by following the incorporation of carbon-14-labeled N-acetylglucosamine, acetic acid, amino acids, uridine, and thymidine into peptidoglycan, fatty acid, protein, RNA and DNA, respectively.

peptidoglycan synthesis = assay: Macromolecular biosynthesis (carbon-14 precursor incorporation); assay type: cell-based; details: ramoplanin at the MIC
Procedure: as §3

[5] = Storage stability of ramoplanin granules and reconstituted solution; assay type: physicochemical; details: refrigerated conditions
Procedure: Ramoplanin is available as granules for oral solution, provided, for example, in packets containing 400 mg free base of ramoplanin, along with pharmaceutically acceptable excipients (e.g., mannitol, hydroxypropyl methylcellulose, magnesium stearate). The contents of the packet can be reconstituted with approximately 15-30 mL of water, and the resulting solution either consumed directly, or further diluted with water, cranberry juice, apple juice, or 7-Up prior to drinking. After consumption, the drug may be followed with subsequent amounts of these beverages or with food (e.g., cracker, bread). […] The reconstituted ramoplanin aqueous solution has a shelf life of 48 hours when stored at refrigerated conditions.

E. faecium A 6350 Line-R = assay: MIC, NCCLS broth microdilution; assay type: cell-based; details: E. faecium A 6350 Line-R (Table 2)
Outline: (§4)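 Broth microdilution followed the NCCLS method, with MICs read in both cation-adjusted Mueller-Hinton broth and trypticase soy broth. Media carrying ramoplanin were supplemented with 0.02% bovine serum albumin to prevent the compound from binding to plastic.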

E. faecium UA210 = assay: MIC, NCCLS broth microdilution; assay type: cell-based; details: E. faecium UA210
Outline: as §4

S. aureus ATCC27659 MSSA = assay: MIC, NCCLS broth microdilution; assay type: cell-based
Outline: as §4

S. aureus ATCC27660 MSSA = assay: MIC, NCCLS broth microdilution; assay type: cell-based
Outline: as §4

S. epidermidis ATCC18972 = assay: MIC, NCCLS broth microdilution; assay type: cell-based; details: S. epidermidis ATCC18972
S. epidermidis ATCC35984 = assay: MIC, NCCLS broth microdilution; assay type: cell-based; details: S. epidermidis ATCC35984
[6] = Day 29, completion of ramoplanin therapy, 25 mg/kg/day vancomycin + 15 mg/kg/day ramoplanin in drinking water

Ramoplanin
% Mice with VRE [1, 6]: 0%
Enterococci in faeces: Total Enterococci [1, 6]: <2.4 log 10 cfu/g faeces
Enterococci in faeces: VRE [1, 6]: <3.1 log 10 cfu/g faeces
VRE concentration per gram of feces ([1]; mice, after one week of ramoplanin treatment, all animals (undetectable level)): < 3.1 log units
VRE concentration per gram of feces ([1]; mice, before ramoplanin treatment): 9.7 log units
fecal density and carriage of VRE ([1]; mice, ramoplanin 100 μg/mL in drinking water): significantly reduced
absorption from the human gastrointestinal tract ([2]; 200, 400 or 800 mg twice-a-day, ten days): No absorption
urine levels of ramoplanin ([2]; Day 1 and 5 and pooled urine up to 72-96 after the last dose): No levels were found in urine
average fecal concentration of ramoplanin ([2]; Day 3, 200 mg twice-a-day): 827 µg/g
average fecal concentration of ramoplanin ([2]; Day 3, 400 mg twice-a-day): 1742 µg/g
average fecal concentration of ramoplanin ([2]; Day 3, 800 mg twice-a-day): 1901 µg/g
average fecal concentration of ramoplanin ([2]; Day 10, 200 mg twice-a-day): 949 µg/g
average fecal concentration of ramoplanin ([2]; Day 10, 400 mg twice-a-day): 1417 µg/g
average fecal concentration of ramoplanin ([2]; Day 10, 800 mg twice-a-day): 2647 µg/g
serum levels of ramoplanin ([2]; Days 1, 5 and 10, hour 0.5-12 after the morning dose): no serum levels of ramoplanin were detected
fecal concentrations post-treatment ([2]; four days post-treatment): remained detectable in some subjects
cumulative recovery in feces ([2]; up to Day 4 post-treatment): 25 % of the administered dose
concentrations of staphylococci, streptococci, and enterococci in stool ([3]; by Day 10, all subjects): below the level of detection
effect on Gram-positive bacteria in stool ([3]; first measurement on Day 4 of treatment): marked effect
intestinal flora after therapy ([3]; follow-up after the 10-day therapy): re-colonized by normal Gram-positive bacteria
Gram-positive colony counts in feces ([3]; healthy male volunteers, all doses (200, 400, 800 mg B.I.D.), during the 10-day regimen): undetectable levels
growth of fecal enterococci (fecal Enterococci): suppressed in all test subjects
fecal ramoplanin concentration [4]: 0.56 to 2.65 mg/g
ramoplanin concentration in plasma or urine ([4]; any subject): No measurable ramoplanin concentration was detected
MIC (VRE): 0.125 to 0.25 µg/mL
first macromolecular biosynthetic pathway inhibited (peptidoglycan synthesis): peptidoglycan synthesis
storage stability ([5]; 400 mg granulated powder packets): stable for at least one year
shelf life ([5]; reconstituted ramoplanin aqueous solution): 48 h
MIC (E. faecium A 6350 Line-R; CAMHB): 0.25, 0.25 μg/ml
MIC (E. faecium A 6350 Line-R; TSB): 0.25, 0.25 μg/ml
MIC (E. faecium UA210; CAMHB): 0.125, 0.125 μg/ml
MIC (E. faecium UA210; TSB): 0.125, 0.125 μg/ml
MIC (E. faecium UA210; Table 6, 1st): 0.06 µg/mL
MIC (E. faecium UA210; Table 6, 2nd): 0.125 µg/mL
MIC (S. aureus ATCC27659 MSSA; CAMHB): 0.25, 0.25 μg/ml
MIC (S. aureus ATCC27659 MSSA; TSB): 0.25, 0.25 μg/ml
MIC (S. aureus ATCC27659 MSSA; Table 6, 1st): 1 µg/mL
MIC (S. aureus ATCC27659 MSSA; Table 6, 2nd): 0.25 µg/mL
MIC (S. aureus ATCC27660 MSSA; CAMHB): 0.5 µg/mL and 1 µg/mL
MIC (S. aureus ATCC27660 MSSA; TSB): 0.25, 0.25 μg/ml
MIC (S. aureus ATCC27660 MSSA; Table 6, 1st): 2 µg/mL
MIC (S. aureus ATCC27660 MSSA; Table 6, 2nd): 1 µg/mL
MIC (S. epidermidis ATCC18972; CAMHB): 0.5, 0.5 μg/ml
MIC (S. epidermidis ATCC18972; TSB): 1, 1 μg/ml
MIC (S. epidermidis ATCC18972; Table 6, 1st): 1 µg/mL
MIC (S. epidermidis ATCC18972; Table 6, 2nd): 0.25 µg/mL
MIC (S. epidermidis ATCC35984; CAMHB): 0.5, 0.5 μg/ml
MIC (S. epidermidis ATCC35984; TSB): 0.5, 0.5 μg/ml
MIC (S. epidermidis ATCC35984; Table 6, 1st): 1 µg/mL
MIC (S. epidermidis ATCC35984; Table 6, 2nd): 0.25 µg/mL
